According to ChEMBL document CHEMBL1201862, “PubChem BioAssay data set” (2004):
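Dose response: 5 concentrations. Exposure: 48 h. Format: 96-well plates. Endpoint: linear interpolation; highest concentration if not reached. Abbreviation: GI50, concentration required for 50% inhibition of growth.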 Calls of active or inactive are those of the source. No stated cut-off is given here; in the data, active = GI50 up to about 1.1 µM and inactive = higher.

Key:
Assay in all cases: NCI anticancer screen, dose series, 48 h
[1] = test system: 786-0
[2] = test system: OVCAR-5
[3] = test system: OVCAR-8
[4] = test system: HL-60
[5] = test system: SW-620
[6] = test system: NCI-H226
[7] = test system: CCRF-CEM
[8] = test system: HOP-62
[9] = test system: KM12
[10] = test system: SK-MEL-5
[11] = test system: M14
[12] = test system: HCC 2998
[13] = test system: SK-MEL-2
[14] = test system: OVCAR-4
[15] = test system: SF-539
[16] = test system: MDA-MB-435
[17] = test system: Hs-578T
[18] = test system: PC-3
[19] = test system: MDA-MB-231

Structure (SMILES) | GI50 [1] | GI50 [2] | GI50 [3] | GI50 [4] | GI50 [5] | GI50 [6] | GI50 [7] | GI50 [8] | GI50 [9] | GI50 [10] | GI50 [11] | GI50 [12] | GI50 [13] | GI50 [14] | GI50 [15] | GI50 [16] | GI50 [17] | GI50 [18] | GI50 [19]
O=C(/C=C/c1cccc([N+](=O)[O-])c1)c1ccc([N+](=O)[O-])cc1 | > 100 µM (inactive) | > 100 µM (inactive) | > 100 µM (inactive) | > 100 µM (inactive) | > 100 µM (inactive) | > 100 µM (inactive) | > 100 µM (inactive) | > 100 µM (inactive) | > 100 µM (inactive) | > 100 µM (inactive) | > 100 µM (inactive) | > 100 µM (inactive) | > 100 µM (inactive) | > 100 µM (inactive) | > 100 µM (inactive) |  |  |  | 
COc1ccccc1NC(=O)CC(=O)n1nc(-c2ccccc2)c(/N=N/c2ccccc2[N+](=O)[O-])c1-c1ccccc1 | > 100 µM (inactive) | 64.1 µM (inactive) | > 100 µM (inactive) | > 100 µM (inactive) | > 100 µM (inactive) | 0.612 µM (active) | > 100 µM (inactive) | > 100 µM (inactive) | 36.1 µM (inactive) | 94.4 µM (inactive) | > 100 µM (inactive) | 70 µM (inactive) | > 100 µM (inactive) | > 100 µM (inactive) | > 100 µM (inactive) |  |  |  | 
O=C(COc1ccc(Cl)cc1)N1N=C(c2ccc(Cl)cc2)CC1(O)c1ccccc1 (stereo unspecified) | 14.5 µM (inactive) | 21.7 µM (inactive) | 15.2 µM (inactive) | 6.5 µM (inactive) | 21.2 µM (inactive) | 22.3 µM (inactive) | 16.7 µM (inactive) | 23.4 µM (inactive) | 14.2 µM (inactive) | 14.5 µM (inactive) | 18.1 µM (inactive) | > 37.2 µM (inactive) | 24.3 µM (inactive) | 7.48 µM (inactive) | 24.8 µM (inactive) |  |  |  | 
CCOC(=O)c1cccn1S(=O)(=O)c1cc(Cl)ccc1NC(=O)CC | 57 µM (inactive) | > 100 µM (inactive) |  | > 100 µM (inactive) | > 100 µM (inactive) |  | > 100 µM (inactive) | > 100 µM (inactive) | 44.9 µM (inactive) | 20.2 µM (inactive) |  |  | 53.5 µM (inactive) | 60.1 µM (inactive) | > 100 µM (inactive) | 33.3 µM (inactive) | 28.9 µM (inactive) | 59.2 µM (inactive) | 39.2 µM (inactive)
COc1ccc(CCCN2c3ccccc3Sc3ccccc32)cc1 | 35.1 µM (inactive) | > 100 µM (inactive) | > 100 µM (inactive) | 41.3 µM (inactive) | 22.8 µM (inactive) | > 100 µM (inactive) | 51.2 µM (inactive) | > 100 µM (inactive) | > 100 µM (inactive) | > 100 µM (inactive) | > 100 µM (inactive) | > 100 µM (inactive) | > 100 µM (inactive) | 53.2 µM (inactive) | > 100 µM (inactive) |  |  |  | 
CC(C)N(C(=O)C1(C)CC1)C(C)C | > 100 µM (inactive) | > 100 µM (inactive) | > 100 µM (inactive) | > 100 µM (inactive) | > 100 µM (inactive) | > 100 µM (inactive) | > 100 µM (inactive) | > 100 µM (inactive) | > 100 µM (inactive) | > 100 µM (inactive) | > 100 µM (inactive) | > 100 µM (inactive) | > 100 µM (inactive) | > 100 µM (inactive) | > 100 µM (inactive) |  |  |  | 
CC1=C(C(=O)Nc2ccc([N+](=O)[O-])cc2)C(c2ccco2)C(C(=O)Nc2ccc([N+](=O)[O-])cc2)=C(C)N1 | 31.8 µM (inactive) | 30.9 µM (inactive) | 26.9 µM (inactive) | 5.18 µM (inactive) | 24.4 µM (inactive) | 19.1 µM (inactive) | 5.18 µM (inactive) | 10 µM (inactive) | 6.41 µM (inactive) | 14.5 µM (inactive) | 21.9 µM (inactive) | 8.77 µM (inactive) | 7.52 µM (inactive) | 3.88 µM (inactive) | 16.5 µM (inactive) |  |  |  | 
N#Cc1ccc(C2OCC3CC=CCC3CO2)cc1 (stereo unspecified) | > 100 µM (inactive) | 71.9 µM (inactive) | 83.4 µM (inactive) | 30.7 µM (inactive) | > 100 µM (inactive) | > 100 µM (inactive) | 44.7 µM (inactive) | > 100 µM (inactive) | 61.4 µM (inactive) | 21.1 µM (inactive) | 52.2 µM (inactive) | 59.4 µM (inactive) | > 100 µM (inactive) | > 100 µM (inactive) | > 100 µM (inactive) |  |  |  | 
Clc1ccc2c(c1)[nH]c1c2nc2sccn21 | > 100 µM (inactive) | > 100 µM (inactive) | > 100 µM (inactive) | > 100 µM (inactive) | > 100 µM (inactive) | > 100 µM (inactive) | > 100 µM (inactive) | > 100 µM (inactive) | > 100 µM (inactive) | > 100 µM (inactive) | > 100 µM (inactive) | > 100 µM (inactive) | > 100 µM (inactive) | > 100 µM (inactive) | > 100 µM (inactive) |  |  |  | 
CCOc1ccc(/N=N/c2c(-c3ccccc3)nn(C(=O)CC(=O)Nc3cccc(C)c3)c2-c2ccccc2)cc1 | > 100 µM (inactive) | 74.1 µM (inactive) | > 100 µM (inactive) | > 100 µM (inactive) | > 100 µM (inactive) | 96.4 µM (inactive) | 76.9 µM (inactive) | > 100 µM (inactive) | 41.5 µM (inactive) | 90.2 µM (inactive) | > 100 µM (inactive) | 26.6 µM (inactive) | > 100 µM (inactive) | > 100 µM (inactive) | 76.2 µM (inactive) |  |  |  | 
CSCCC(NC(=O)Cc1ccc(C(=O)c2ccccc2)cc1)C(=O)N1CCN(CCCCN2c3ccccc3Sc3cc(N=[N+]=[N-])ccc32)CC1 (stereo unspecified) | > 100 µM (inactive) | > 100 µM (inactive) |  | 30.6 µM (inactive) |  | 78.2 µM (inactive) | 49.3 µM (inactive) | > 100 µM (inactive) | 20.4 µM (inactive) | 30.2 µM (inactive) |  | > 100 µM (inactive) | > 100 µM (inactive) | 16.5 µM (inactive) |  |  |  | 65.9 µM (inactive) | > 100 µM (inactive)
C[P+](C)(C)C | > 100 µM (inactive) | > 100 µM (inactive) | > 100 µM (inactive) | > 100 µM (inactive) | > 100 µM (inactive) | > 100 µM (inactive) | > 100 µM (inactive) | > 100 µM (inactive) | > 100 µM (inactive) | > 100 µM (inactive) | > 100 µM (inactive) | > 100 µM (inactive) | > 100 µM (inactive) | > 100 µM (inactive) | > 100 µM (inactive) |  |  |  | 
Cc1nnc(N)nc1/C=C\c1cccs1 | 18.6 µM (inactive) | 21.8 µM (inactive) | 17 µM (inactive) | 6.11 µM (inactive) | 25.5 µM (inactive) | 17.5 µM (inactive) | 16.7 µM (inactive) | 16.7 µM (inactive) | 16.8 µM (inactive) | > 10 µM (inactive) | 16.2 µM (inactive) | 14.6 µM (inactive) | 14.6 µM (inactive) | 21.6 µM (inactive) |  | 18 µM (inactive) | 19.9 µM (inactive) | 17.2 µM (inactive) | 87.3 µM (inactive)
